From patent publication US11866416B2, “Streptococcus mutans glucosyl transferase inhibitors for dental caries therapy” (UAB Research Foundation, priority 2018, dated 2024)
In brackets after ≈: the same amount, converted by molar mass. Like-named read-outs stand apart in the source and are kept apart here.

Columns and labels:
S. mutans biofilm = S. mutans biofilm formation and inhibition assay (96-well plates, crystal violet); format: cell-based, Streptococcus mutans
Procedure: Biofilm assays using 96-well flat-bottom polystyrene microtiter plates were performed to evaluate S. mutans biofilm formation at various conditions as described (Liu et al. (2011) Antimicrobial Agents and Chemotherapy 55, 2679; Zhang et al. (2015) International Journal of Antimicrobial Agents 46, 174), the disclosures of which are incorporated herein by reference in their entirety). Each assay was replicated three times. Compounds that inhibited biofilm formation at minimum concentration (MBIC) were determined by serial dilutions.
S. mutans biofilm formation and inhibition assays. […] Each assay was replicated three times. Minimum biofilm inhibitory concentration (MBIC) of compounds was determined by serial dilutions.
S. mutans biofilm formation and inhibition assays. Biofilm assays using 96-well flat-bottom polystyrene microtiter plates were performed to evaluate S. mutans biofilm formation at various conditions as described. Each assay was replicated […]. Compounds that inhibited 50% biofilm formation were determined by serial dilutions.
S. mutans biofilm formation and inhibition assays. A well-established protocol to study S. mutans biofilm formation in 96-well flat-bottom polystyrene microtiter plates was used, in triplicate (Mattos-Graner, R. O.; Napimoga, M. H.; Fukushima, K.; Duncan, M. J.; Smith, D. J., Comparative analysis of Gtf isozyme production and diversity in isolates of Streptococcus mutans with different biofilm growth phenotypes. Journal of clinical microbiology 2004, 42 (10), 4586-4592). The stock solutions were made up in 100% DMSO, and final concentration of DMSO used in the assays was 1%. Minimum biofilm inhibitory concentration (MBIC) of compounds was determined by serial dilutions.

S. mutans = assay: microbe, parasite or virus in culture; format: cell-based, Streptococcus mutans; settings: for MIC50: Streptococcus mutans, >300 = no inhibition up to 300 μM, read-out: Growth Inhibition MIC50
Procedure: Cell viability of S. mutans, S. gordonii, S. sanguinis, Aggregatibacter actinomycetemcomitans and Actinomyces. […] The number of colony-forming units (CFU) per milliliter of each sample treated with selected compounds at different concentrations was enumerated after incubation for 24 h at 37° C. and compared to the values obtained from the DMSO control group. Overnight broth cultures were transferred by 1:50 dilutions into fresh THB medium and were allowed to grow until mid-exponential phase (OD470 nm 0.6) before transfer to 96-well plates containing desired concentration of the compound. After 16 h incubation, bacterial growth was measured at OD470, and normalized to the DMSO control (100%).
Cell viability of S. mutans and commensal S. gordonii and S. sanguinis. Effects of lead small molecules on cell viability were examined. The number of colony-forming units (CFU) per milliliter for each compound at different concentrations was determined after incubation for 24 h at 37° C. and compared to the values obtained from the DMSO control group.
Cell viability of S. mutans and commensal S. gordonii and S. sanguinis. […] DMSO served as a control group and provided a relative comparison for the number of colony-forming units (CFU) per milliliter for each compound at different concentrations was determined after incubation for 24 h at 37° C. The final concentration of DMSO used in the assays was 1%.

[1] = Streptococcus mutans, Table 2, read-out: Biofilm Inhibition IC50
[2] = Streptococcus mutans, Table 1, >500 = no inhibition up to 500 μM, read-out: Biofilm Inhibition IC50
[3] = Streptococcus mutans, Table 3, read-out: Biofilm Inhibition IC50
[4] = Table 3, NI = no inhibition up to 400 μM

SMILES	IC50 (S. mutans biofilm; [1])	MIC50 (S. mutans; Table 2)	IC50 (S. mutans biofilm; [2])	further results
CC(C)(C)OC(=O)NCc1ccccc1NC(=O)c1cc2cc([N+](=O)[O-])ccc2[nH]1 [Compound 298C9]	26.8 µM	> 300 µM		
COC(=O)c1ccc(NC(=O)c2cnc3ccccc3c2)cc1 [Compound 3S]	92.3 µM	> 300 µM	92.3 µM	
COC(=O)c1ccc(NC(=O)c2ccc3ccccc3n2)cc1 [Compound 298G6]	106 µM	> 300 µM		
N=C(N)c1ccc(/C=C/c2ccc(C(=N)N)cc2O)cc1 [Compound 5]				effect on S. mutans biofilm in the preliminary screen (S. mutans biofilm; chalcones, 200 μM): did not possess any bactericidal or anti-biofilm properties; IC50 (S. mutans biofilm; read-out: S. mutans biofilm IC50): 104 µM; S. mutans growth IC50 / MIC50 (S. mutans): 179 µM; effect on S. mutans growth (S. mutans; chalcones, up to 200 μM): did not possess any bactericidal or anti-biofilm properties
COc1ccc2[nH]c(C(=O)Nc3ccccc3C(N)=O)cc2c1 [Compound 3G]	68.8 µM	> 300 µM	68.8 µM	
NCc1cccc(NC(=O)c2cc3ccccc3s2)c1 [BX]	209 µM	> 300 µM	209 µM	
Cc1ccc(S(=O)(=O)Nc2cccc(NC(=O)c3cc4cc([N+](=O)[O-])ccc4s3)c2)cc1 [AD]	63.7 µM	> 300 µM	63.7 µM	
NC(=O)c1ccccc1NC(=O)c1cc2ccccc2s1 [Compound 3B]	45.6 µM	> 300 µM	45.6 µM	
O=c1c(O)c(-c2cc(O)c(O)cc2O)oc2ccccc12 [SN-II-92]				IC50 (S. mutans biofilm; [3]): 19.8 ± 2 µM; MIC50 (S. mutans; [4]): 63.1 ± 4 µM (≈ 18.1 µg/mL)
COC(=O)c1cccc(NC(=O)c2cc3ccccc3s2)c1 [Compound 298D5]	121 µM	> 300 µM		
COC(=O)c1cccc(NC(=O)c2cc3cc(NC(=N)N)ccc3o2)c1 [SN-II-107]	16.6 µM	45.9 µM (≈ 16.2 µg/mL)		
NC(=O)c1cccc(NC(=O)c2cccc3ccccc23)c1 [BS]	195 µM	> 300 µM	195 µM	
CN(C)c1ncc(/C=C/C(=O)Nc2ccccc2C(N)=O)cn1 [SN-I-271S]	12.8 µM	> 300 µM		
NC(=O)c1ccc(NC(=O)c2ccc3ccccc3n2)cc1 [BC]	54.4 µM	> 300 µM	54.4 µM	
NC(=O)c1ccccc1NC(=O)c1c[nH]c2ccccc12 [Compound 3F]	146 µM	> 300 µM	146 µM	
COc1ccc(/C=C2\Oc3ccccc3C2=O)cc1OC [LC-I-197]				IC50 (S. mutans biofilm; [3]): 8.4 ± 1 µM; MIC50 (S. mutans; [4]): 37.1 ± 6 µM (≈ 10.5 µg/mL)
COC(=O)c1cccc(NC(=O)c2cc3cc([N+](=O)[O-])ccc3o2)c1 [AE]	2.7 µM	> 300 µM	2.7 µM	
NC(=O)c1ccccc1OC(=O)c1ccc2ccccc2c1 [AX]	98.3 µM	> 300 µM	98.3 µM	
NC(=O)c1cccc(NC(=O)c2cnc3ccccc3c2)c1 [Compound 3R]	8.6 µM	> 300 µM	8.6 µM	
NC(=O)c1cccc(NC(=O)c2cc3ccccc3s2)c1 [Compound 3X]	116 µM	> 300 µM	116 µM	
NC(=O)c1cccc(NC(=O)c2ccc3ccccc3n2)c1 [AV]	111 µM	> 300 µM	111 µM	
NC(=O)c1ccc(NC(=O)c2cc3ccccc3s2)cc1 [Compound 3Y]	45.6 µM	> 300 µM	45.6 µM	
NC(=O)c1ccccc1NC(=O)c1cc2cc(N)ccc2s1 [SN-II-81F]		> 300 µM		IC50 (S. mutans biofilm; Table 2, read-out: Biofilm Inhibition IC50): 56.4 µM
O=C(/C=C/c1ccc(O)c(O)c1)c1ccccc1O [RZ-1-90]				IC50 (S. mutans biofilm; [3]): 356 ± 14 µM; MIC50 (S. mutans; [4]): > 300 µM
NC(=O)c1ccccc1C(=O)Nc1cnc2ccccc2c1 [SN-I-285]	102 µM	> 300 µM		
COC(=O)c1cccc(NC(=O)c2ccc3ccccc3n2)c1 [Compound 298G5]	92.3 µM	> 300 µM		
